Results reported in patent US20100022514A1, “Heterocycle Compounds and Methods of Use Thereof” (NORVARTIS AG, priority 2006, published 2010).

How the values were obtained:
[1] = system: p21 promoter (p21-luc) in H1299 cells; assay: p21 promoter luciferase assay using stably transfected p21-luc in H1299 cells; format: cell-based; conditions: Homo sapiens, NCI-H1299
Experimental: The cell lines used are derived from H1299 (p21-luc). The growth media used is RPMI 1640, 10% FBS, 1% Pen/Strep and the selection media added is 500 μg/mL Geneticin (Gibco). The buffer used is 5× cell culture lysis buffer (Promega #E1531), stored at −20 C and the Luciferase assay reagent (Promega #E1483) is stored at −70° C. The results of the assay are analyzed using Wallac Software.
To assay Luciferase, the cell culture medium is removed after one day of growth and the flasks are washed once with PBS. The cells are trypsinized in 20 mL of media and the trypsin is neutralized. The cells are counted (0.5-1 mL) on a Vi-Cell XR cell viability analyzer.
Cells are then diluted to a concentration of approximately 5000 cells/200 μL, and 190 μL samples are aliquoted into each well of a Costar white 96-well TC treated white bottom plate with lid (Costar #3917). Plates are then incubated overnight at 37 C.
After a further day, a sample of the compound is added to the wells for assay.
After a further day, the cells are lysed and the luciferase activity of the lysed cells is measured. Each well is washed twice with PBS and 20 μL/well of 1× cell culture lysis buffer (dilute 5× to 1× in distilled water) is added to each well. The microtiter plates are then shaken on a microtiter plate shaker for 20 minutes at room temperate at a speed setting of 5-6. After removal from the shaker, 100 μL of Luciferase Reagent is added to each well. Each microtiter plate is then read on Wallac Envision instrument.

HDAC-1 = biological target: T1, HDAC-1 (Homo sapiens, UniProt Q13547); assay: Deacetylase fluorescence assay (HDAC-1); format: biochemical; conditions: read-out: HDAC-1 IC50
T1 construct: made in house
Experimental: Conventional methods are used to express deacetylase enzymes and purify them from lysed cells. The following example describes an exemplary procedure, however equivalent procedures are within the scope of the invention.
The cell line used is a derivative of 293 cells overexpressing a fusion of the gene encoding each deacetylase protein with a nucleotide sequence encoding the Flag marker.
Cells are grown in Optimem, 2% Fetal Calf Serum, Pen/Strep. For enzyme preparation, Lysis buffer (IPLS) is 50 mM Tris-HCl, pH 7.5, 120 mM NaCl, 0.5 mM EDTA and 0.5% Nonidet P-40, to which is added one tablet of Protease inhibitors (Roche 11836170001) per 10 ml buffer. Other buffers are IPHS, which is IPLS containing 1 M NaCl; TBS (Sigma #T5912) dilute 10× stock to 1× with dH2O; HD buffer: 10 mM Tris pH 8.0 (1M Stock) 10 mM NaCl (5M Stock), 10% glycerol, and for dialysis: 400 μM PMSF is added (for 2 L: use 8 ml 100 mM Stock). Protease inhibitors (Complete mini, Boehringer Mannheim), 1 tablet/10 mL are added to all buffers but not used in buffers for enzyme assays.
Cells are harvested without using trypsin, and most cells are obtained easily in PBS, with gentle striking or agitation of flasks if necessary. More adherent cells are scraped in PBS. Cells are grown in 500 cm^2 trays, from which about half of the media is aspirated (50 ml total), then cells are scraped in the rest of the media and transferred to a centrifuge tube. Trays are washed with 25 ml cold PBS, scraped again to collect additional cells, and centrifuged at 1500 rpm at 4° C. for 5 min. Cells are washed at least 3 times in PBS to remove growth media, pelleting cells after each wash by centrifugation at 1500 rpm for 5 minutes. After washing, PBS is removed and the resulting cell pellet frozen at −80° C. for storage prior to purification.
For purification, cells are resuspended in lysis buffer, 12 ml of IPLS for cells collected from 10 500 cm trays. Cells are lysed at 4° C. for 3 hrs with rocking, and debris is removed by centrifugation for 20 min at 17,000 rpm in 30 ml centrifuge tubes. If supernatant is not clear afterward, centrifugation of the supernatant is repeated. Protein concentration of the whole cell lysate is determined (generally in the range of about 2-5 mg/ml).
For immunoprecipitation per mg of protein, 15 μL of anti-Flag M2-Agarose Affinity beads (Sigma #A2220) is used. Beads are prepared by washing 3 times with 10× bead volume of PBS and 1 time with IPLS, with centrifugation of the washes at 1500 rpm for 5 min. Whole cell lysate is incubated with the Ab-beads overnight at 4° C. Then beads are centrifuged and washed in 5× volume of the following buffers: three times in IPLS (30 sec at 4° C., spin at 1500 RPM for 5 min); three times in IPHS; and three times in TBS buffer. After each centrifugation, the supernatant is aspirated, leaving the pellet as dry as possible but avoiding sucking up any of the beads.
To elute the enzyme, beads are resuspended in 5× bead volume of TBS with protease inhibitor (Roche 11836170001) 1 tablet/10 mL. Enzyme is eluted with 400 μg/mL Flag peptide (Sigma #F-3290) for 3 hrs at 4° C. on rotator. Then beads are centrifuged, and the supernatant is transferred to a new tube to which is added 1/10 volume of glycerol. The supernatant is transferred to a dialysis cassette (Pierce #66410) using a 3 cc syringe and 18 G needle, and is dialyze sup in 2 L HD buffer for 2 hrs at 4° C. (1 L/hour). The resulting purified deacetylase is divided into aliquots (300 μL/tube), is snap frozen in dry ice bath, and is stored at −80° C.
For assay of deacetylase an assay based on Deacetylase Fluorescent Activity Assay/Drug Discovery Kit (BioMol # AK500) is used, however any equivalent deacetylase assay is within the scope of the invention.
The Fluorescent Assay Buffer (FAB) contains: 25 mM Tris-HCl, pH 8.0, 137 mM NaCl, 2.7 mM KCl and 1 mM MgCl2. […]

T1 sequence (Q13547 whole entry): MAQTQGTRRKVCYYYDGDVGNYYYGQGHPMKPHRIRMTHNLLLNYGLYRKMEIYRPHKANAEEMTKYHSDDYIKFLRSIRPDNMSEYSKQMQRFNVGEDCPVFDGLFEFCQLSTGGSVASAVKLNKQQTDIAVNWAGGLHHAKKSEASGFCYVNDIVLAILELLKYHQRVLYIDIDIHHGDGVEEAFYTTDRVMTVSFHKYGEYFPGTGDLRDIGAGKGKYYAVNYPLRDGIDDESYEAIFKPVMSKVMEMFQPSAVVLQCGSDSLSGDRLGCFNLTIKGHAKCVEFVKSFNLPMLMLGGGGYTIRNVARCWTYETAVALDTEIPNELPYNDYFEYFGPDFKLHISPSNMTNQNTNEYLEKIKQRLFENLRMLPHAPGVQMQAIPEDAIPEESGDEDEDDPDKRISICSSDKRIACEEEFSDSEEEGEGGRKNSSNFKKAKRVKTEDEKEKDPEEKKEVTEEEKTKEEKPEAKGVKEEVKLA

IC50 (HDAC-1) [nM] | Structure (SMILES) | AC50 [1] [nM]
100 to 1000 | O=C(/C=C/c1ccc2c(c1)CN(CCc1ccnn1-c1ccccc1)CC2)NO [Example 48, (E)-N-Hydroxy-3-{2-[2-(2-phenyl-2H-pyrazol-3-yl)-ethyl]-1,2,3,4-tetrahydro-isoquinolin-7-yl}-acrylamide] | > 1000
100 to 1000 | Cc1c(CCN2CCc3ccc(/C=C/C(=O)NO)cc3C2)cnn1-c1ccccc1 [Example 49, (E)-N-Hydroxy-3-{2-[2-(5-methyl-1-phenyl-1H-pyrazol-4-yl)-ethyl]-1,2,3,4-tetrahydro-isoquinolin-7-yl}-acrylamide] | > 1000
100 to 1000 | Cc1nn(C)c(C)c1CCN1CCc2ccc(/C=C/C(=O)NO)cc2C1 [Example 50, (E)-N-Hydroxy-3-{2-[2-(1,3,5-trimethyl-1H-pyrazol-4-yl)-ethyl]-1,2,3,4-tetrahydro-isoquinolin-7-yl}-acrylamide] | > 1000
100 to 1000 | O=C(/C=C/c1ccc2c(c1)CN(Cc1ccccc1)CC2)NO [Example 51, (E)-3-(2-Benzyl-1,2,3,4-tetrahydro-isoquinolin-7-yl)-N-hydroxy-acrylamide] | > 1000
100 to 1000 | Cc1nn(C)c(C)c1CN1CCc2ccc(/C=C/C(=O)NO)cc2C1 [Example 52, (E)-N-Hydroxy-3-[2-(1,3,5-trimethyl-1H-pyrazol-4-ylmethyl)-1,2,3,4-tetrahydro-isoquinolin-7-yl]-acrylamide] | > 1000
< 100 | CN(C)c1ccc(C(=O)N2CCc3ccc(/C=C/C(=O)NO)cc3C2)cc1 [Example 53, (E)-3-[2-(4-Dimethylamino-benzoyl)-1,2,3,4-tetrahydro-isoquinolin-7-yl]-N-hydroxy-acrylamide] | > 1000
100 to 1000 | O=C(/C=C/c1ccc2c(c1)CN(S(=O)(=O)c1ccccc1)CC2)NO [Example 54, (E)-3-(2-Benzenesulfonyl-1,2,3,4-tetrahydro-isoquinolin-7-yl)-N-hydroxy-acrylamide] | > 1000
100 to 1000 | COc1cccc(S(=O)(=O)N2CCc3ccc(/C=C/C(=O)NO)cc3C2)c1 [Example 55, (E)-N-Hydroxy-3-[2-(3-methoxy-benzenesulfonyl)-1,2,3,4-tetrahydro-isoquinolin-7-yl]-acrylamide] | > 1000
100 to 1000 | COc1ccc(S(=O)(=O)N2CCc3ccc(/C=C/C(=O)NO)cc3C2)cc1 [Example 56, (E)-N-Hydroxy-3-[2-(4-methoxy-benzenesulfonyl)-1,2,3,4-tetrahydro-isoquinolin-7-yl]-acrylamide] | > 1000
< 100 | COc1ccc(C(=O)N2CCc3ccc(/C=C/C(=O)NO)cc3C2)cc1 [Example 57, (E)-N-Hydroxy-3-[2-(4-methoxy-benzoyl)-1,2,3,4-tetrahydro-isoquinolin-7-yl]-acrylamide] | > 1000
100 to 1000 | COc1ccc(C(=O)N2CCc3ccc(CCC(=O)NO)cc3C2)cc1 [Example 58, N-Hydroxy-3-[2-(4-methoxy-benzoyl)-1,2,3,4-tetrahydro-isoquinolin-7-yl]-propionamide] | > 1000
100 to 1000 | COc1cccc(C(=O)N2CCc3ccc(/C=C/C(=O)NO)cc3C2)c1 [Example 59, (E)-N-Hydroxy-3-[2-(3-methoxy-benzoyl)-1,2,3,4-tetrahydro-isoquinolin-7-yl]-acrylamide] | > 1000
100 to 1000 | COc1cccc(C(=O)N2CCc3ccc(CCC(=O)NO)cc3C2)c1 [Example 60, N-Hydroxy-3-[2-(3-methoxy-benzoyl)-1,2,3,4-tetrahydro-isoquinolin-7-yl]-propionamide] | > 1000
< 100 | Cc1[nH]c2ccccc2c1CC(=O)N1CCc2ccc(/C=C/C(=O)NO)cc2C1 [Example 61, (E)-N-Hydroxy-3-{2-[2-(2-methyl-1H-indol-3-yl)-acetyl]-1,2,3,4-tetrahydro-isoquinolin-7-yl}-acrylamide] | > 1000
< 100 | Cc1[nH]c2ccccc2c1CC(=O)N1CCc2ccc(CCC(=O)NO)cc2C1 [Example 62, N-Hydroxy-3-{2-[2-(2-methyl-1H-indol-3-yl)-acetyl]-1,2,3,4-tetrahydro-isoquinolin-7-yl}-propionamide] | > 1000
< 100 | O=C(/C=C/c1ccc2c(c1)CN(C(=O)Cc1ccccc1)CC2)NO [Example 63, (E)-N-Hydroxy-3-(2-phenylacetyl-1,2,3,4-tetrahydro-isoquinolin-7-yl)-acrylamide] | > 1000
< 100 | Cc1ccc(CC(=O)N2CCc3ccc(/C=C/C(=O)NO)cc3C2)cc1 [Example 64, (E)-N-Hydroxy-3-[2-(2-p-tolyl-acetyl)-1,2,3,4-tetrahydro-isoquinolin-7-yl]-acrylamide] | > 1000
< 100 | COc1ccc(CC(=O)N2CCc3ccc(/C=C/C(=O)NO)cc3C2)cc1 [Example 65, (E)-N-Hydroxy-3-{2-[2-(4-methoxy-phenyl)-acetyl]-1,2,3,4-tetrahydro-isoquinolin-7-yl}-acrylamide] | > 1000
< 100 | O=C(/C=C/c1ccc2c(c1)CN(C(=O)Cc1ccc(Cl)cc1)CC2)NO [Example 66, (E)-3-{2-[2-(4-Chloro-phenyl)-acetyl]-1,2,3,4-tetrahydro-isoquinolin-7-yl}-N-hydroxy-acrylamide] | > 1000
< 100 | O=C(/C=C/c1ccc2c(c1)CN(C(=O)Cc1ccc(Cl)c(Cl)c1)CC2)NO [Example 67, (E)-3-{2-[2-(3,4-Dichloro-phenyl)-acetyl]-1,2,3,4-tetrahydro-isoquinolin-7-yl}-N-hydroxy-acrylamide] | > 1000
< 100 | O=C(/C=C/c1ccc2c(c1)CCN(CCc1cnn3ccccc13)C2)NO [Example 69, (E)-N-Hydroxy-3-[2-(2-pyrazolo[1,5-a]pyridin-3-yl-ethyl)-1,2,3,4-tetrahydro-isoquinolin-6-yl]-acrylamide] | > 1000

Structure (SMILES) | IC50 (HDAC-1) [nM] | AC50 [1] [nM]
O=C(/C=C/c1ccc2c(c1)CCN(CCc1c[nH]c3ccccc13)C2)NO [Example 68, (E)-N-Hydroxy-3-{2-[2-(1H-indol-3-yl)-ethyl]-1,2,3,4-tetrahydro-isoquinolin-6-yl}-acrylamide] | < 100 | > 1000
